In brackets after ≈: the same amount, converted by molar mass.

One assay concerns Mycolicibacterium smegmatis. Nature of the assay: Antimycobacterial activity against Mycobacterium smegmatis (SANK 75075). The format is functional.
`CO[C@H]1[C@@H](O)[C@H](n2ccc(=O)[nH]c2=O)O[C@@H]1[C@@H](O[C@H]1OC(C(=O)NCc2ccco2)=C[C@H](O)[C@@H]1O)C(N)=O` gave an MIC of 100 µg/mL (≈ 186 µM).

`CO[C@H]1[C@@H](O)[C@H](n2ccc(=O)[nH]c2=O)O[C@@H]1[C@@H](O[C@H]1OC(C(=O)Nc2ccc(C(F)(F)F)cc2)=C[C@H](O)[C@@H]1O)C(N)=O`: inhibition of growth (MIC) required 12.5 µg/mL (≈ 20.7 µM).

Regarding `CCc1ccc(NC(=O)C2=C[C@H](O)[C@H](O)[C@@H](O[C@@H](C(N)=O)[C@H]3O[C@@H](n4ccc(=O)[nH]c4=O)[C@H](O)[C@@H]3OC)O2)cc1`, the MIC worked out at 12.5 µg/mL (≈ 22.2 µM).

`CO[C@H]1[C@@H](O)[C@H](n2ccc(=O)[nH]c2=O)O[C@@H]1[C@@H](O[C@H]1OC(C(=O)NCc2ccc(C)cc2)=C[C@H](O)[C@@H]1O)C(N)=O` displayed an MIC of 50 µg/mL (≈ 88.9 µM).

Consider `CO[C@H]1[C@@H](O)[C@H](n2ccc(=O)[nH]c2=O)O[C@@H]1[C@@H](O[C@H]1OC(C(=O)NCCc2cccs2)=C[C@H](O)[C@@H]1O)C(N)=O`, for which 25 µg/mL (≈ 44 µM) was the least that counted as inhibitory (MIC). This MIC is about 2-fold lower than that of the molecule before.

As to `CO[C@H]1[C@@H](O)[C@H](n2ccc(=O)[nH]c2=O)O[C@@H]1[C@@H](O[C@H]1OC(C(=O)N2CCCC2)=C[C@H](O)[C@@H]1O)C(N)=O`, the MIC is greater than 100 µg/mL.

Molecule `CO[C@H]1[C@@H](O)[C@H](n2ccc(=O)[nH]c2=O)O[C@@H]1[C@@H](O[C@H]1OC(C(=O)NCCc2ccc(F)cc2)=C[C@H](O)[C@@H]1O)C(N)=O` had an MIC of 12.5 µg/mL (≈ 21.5 µM).

On to `COc1ccccc1CCNC(=O)C1=C[C@H](O)[C@H](O)[C@@H](O[C@@H](C(N)=O)[C@H]2O[C@@H](n3ccc(=O)[nH]c3=O)[C@H](O)[C@@H]2OC)O1`, for which the MIC stood at 50 µg/mL (≈ 84.4 µM).

For the molecule `CO[C@H]1[C@@H](O)[C@H](n2ccc(=O)[nH]c2=O)O[C@@H]1[C@@H](O[C@H]1OC(C(=O)NCc2ccccc2C)=C[C@H](O)[C@@H]1O)C(N)=O`, the MIC was 12.5 µg/mL (≈ 22.2 µM).

As to `CCCCCCNC(=O)C1=C[C@H](O)[C@H](O)[C@@H](O[C@@H](C(N)=O)[C@H]2O[C@@H](n3ccc(=O)[nH]c3=O)[C@H](O)[C@@H]2OC)O1`, the MIC was 12.5 µg/mL (≈ 23 µM).

As for `CO[C@H]1[C@@H](O)[C@H](n2ccc(=O)[nH]c2=O)O[C@@H]1[C@@H](O[C@H]1OC(C(=O)Nc2cccc(F)c2F)=C[C@H](O)[C@@H]1O)C(N)=O`, the MIC turned out to be 12.5 µg/mL (≈ 21.9 µM).

For the molecule `CO[C@H]1[C@@H](O)[C@H](n2ccc(=O)[nH]c2=O)O[C@@H]1[C@@H](O[C@H]1OC(C(=O)N(C)c2ccccc2)=C[C@H](O)[C@@H]1O)C(N)=O`, the MIC was greater than 100 µg/mL.

Molecule `CO[C@H]1[C@@H](O)[C@H](n2ccc(=O)[nH]c2=O)O[C@@H]1[C@@H](O[C@H]1OC(C(=O)NCc2cccs2)=C[C@H](O)[C@@H]1O)C(N)=O` gave an MIC of 50 µg/mL (≈ 90.2 µM).

In the case of `CO[C@H]1[C@@H](O)[C@H](n2ccc(=O)[nH]c2=O)O[C@@H]1[C@@H](O[C@H]1OC(C(=O)NCCCCO)=C[C@H](O)[C@@H]1O)C(N)=O`, the MIC is greater than 100 µg/mL.

Molecule `CO[C@H]1[C@@H](O)[C@H](n2ccc(=O)[nH]c2=O)O[C@@H]1[C@@H](O[C@H]1OC(C(=O)NCCO)=C[C@H](O)[C@@H]1O)C(N)=O` returned an MIC greater than 100 µg/mL.

In the case of `CO[C@H]1[C@@H](O)[C@H](n2ccc(=O)[nH]c2=O)O[C@@H]1[C@@H](O[C@H]1OC(C(=O)NCCc2ccc(C)cc2)=C[C@H](O)[C@@H]1O)C(N)=O`, the MIC was 50 µg/mL (≈ 86.7 µM).

`CO[C@H]1[C@@H](O)[C@H](n2ccc(=O)[nH]c2=O)O[C@@H]1[C@@H](O[C@H]1OC(C(=O)NCCc2ccc(O)cc2)=C[C@H](O)[C@@H]1O)C(N)=O` displayed an MIC of 50 µg/mL (≈ 86.4 µM).

`CO[C@H]1[C@@H](O)[C@H](n2ccc(=O)[nH]c2=O)O[C@@H]1[C@@H](O[C@H]1OC(C(=O)NCc2ccccc2)=C[C@H](O)[C@@H]1O)C(N)=O` had an MIC of 50 µg/mL (≈ 91.2 µM).

In the case of `CCCCCCCCCCCCNC(=O)C1=C[C@H](O)[C@H](O)[C@@H](O[C@@H](C(N)=O)[C@H]2O[C@@H](n3ccc(=O)[nH]c3=O)[C@H](O)[C@@H]2OC)O1`, the MIC was 25 µg/mL (≈ 39.9 µM).

Another assay has as its target T1, Phospho-N-acetylmuramoyl-pentapeptide-transferase (Escherichia coli K-12, UniProt P0A6W3).
T1 sequence (P0A6W3 whole entry): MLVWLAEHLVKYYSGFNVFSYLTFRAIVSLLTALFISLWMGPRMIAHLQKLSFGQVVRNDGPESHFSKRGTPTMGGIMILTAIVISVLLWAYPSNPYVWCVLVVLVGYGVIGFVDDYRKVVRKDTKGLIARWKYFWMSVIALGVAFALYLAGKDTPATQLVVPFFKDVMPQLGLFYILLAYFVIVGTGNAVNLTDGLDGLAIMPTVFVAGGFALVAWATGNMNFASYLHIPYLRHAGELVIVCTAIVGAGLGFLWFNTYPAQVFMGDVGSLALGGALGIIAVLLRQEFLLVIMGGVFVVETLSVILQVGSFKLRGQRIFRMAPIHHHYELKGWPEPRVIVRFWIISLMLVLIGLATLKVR
Nature of the assay: Inhibitory activity against translocase I.
Molecule `CO[C@H]1[C@@H](O)[C@H](n2ccc(=O)[nH]c2=O)O[C@@H]1[C@@H](O[C@H]1OC(C(=O)NCc2ccco2)=C[C@H](O)[C@@H]1O)C(N)=O` gave an IC50 of 520 nM.

Take `CCc1ccc(NC(=O)C2=C[C@H](O)[C@H](O)[C@@H](O[C@@H](C(N)=O)[C@H]3O[C@@H](n4ccc(=O)[nH]c4=O)[C@H](O)[C@@H]3OC)O2)cc1`: the IC50 is 35.6 nM.

The molecule `CO[C@H]1[C@@H](O)[C@H](n2ccc(=O)[nH]c2=O)O[C@@H]1[C@@H](O[C@H]1OC(C(=O)NCc2ccc(C)cc2)=C[C@H](O)[C@@H]1O)C(N)=O` gave an IC50 of 2130 nM.

Regarding `CO[C@H]1[C@@H](O)[C@H](n2ccc(=O)[nH]c2=O)O[C@@H]1[C@@H](O[C@H]1OC(C(=O)NCCc2cccs2)=C[C@H](O)[C@@H]1O)C(N)=O`, the IC50 was 22.9 nM.

Take `CO[C@H]1[C@@H](O)[C@H](n2ccc(=O)[nH]c2=O)O[C@@H]1[C@@H](O[C@H]1OC(C(=O)N2CCCC2)=C[C@H](O)[C@@H]1O)C(N)=O`: the IC50 was 820 nM.

Turning to `CO[C@H]1[C@@H](O)[C@H](n2ccc(=O)[nH]c2=O)O[C@@H]1[C@@H](O[C@H]1OC(C(=O)NCCc2ccc(F)cc2)=C[C@H](O)[C@@H]1O)C(N)=O`, the IC50 was 37.9 nM.

Molecule `COc1ccccc1CCNC(=O)C1=C[C@H](O)[C@H](O)[C@@H](O[C@@H](C(N)=O)[C@H]2O[C@@H](n3ccc(=O)[nH]c3=O)[C@H](O)[C@@H]2OC)O1` gave an IC50 of 54 nM. This IC50 and that of the molecule before are within 1.5-fold of each other.

With `CO[C@H]1[C@@H](O)[C@H](n2ccc(=O)[nH]c2=O)O[C@@H]1[C@@H](O[C@H]1OC(C(=O)NCc2ccccc2C)=C[C@H](O)[C@@H]1O)C(N)=O`, the IC50 was 889 nM. This IC50 is about 16-fold higher than that of the molecule before.

Consider `CCCCCCNC(=O)C1=C[C@H](O)[C@H](O)[C@@H](O[C@@H](C(N)=O)[C@H]2O[C@@H](n3ccc(=O)[nH]c3=O)[C@H](O)[C@@H]2OC)O1`, for which the IC50 is 55.3 nM. Against the preceding molecule, the IC50 is about 16-fold lower.

As to `CO[C@H]1[C@@H](O)[C@H](n2ccc(=O)[nH]c2=O)O[C@@H]1[C@@H](O[C@H]1OC(C(=O)Nc2cccc(F)c2F)=C[C@H](O)[C@@H]1O)C(N)=O`, the IC50 was 22.8 nM.

Molecule `CO[C@H]1[C@@H](O)[C@H](n2ccc(=O)[nH]c2=O)O[C@@H]1[C@@H](O[C@H]1OC(C(=O)N(C)c2ccccc2)=C[C@H](O)[C@@H]1O)C(N)=O` had an IC50 greater than 4560 nM.

`CO[C@H]1[C@@H](O)[C@H](n2ccc(=O)[nH]c2=O)O[C@@H]1[C@@H](O[C@H]1OC(C(=O)NCc2cccs2)=C[C@H](O)[C@@H]1O)C(N)=O` had an IC50 of 139 nM. In other words, the sub-micromolar range.

`CO[C@H]1[C@@H](O)[C@H](n2ccc(=O)[nH]c2=O)O[C@@H]1[C@@H](O[C@H]1OC(C(=O)NCCCCO)=C[C@H](O)[C@@H]1O)C(N)=O` showed an IC50 of 320 nM.

On to `CO[C@H]1[C@@H](O)[C@H](n2ccc(=O)[nH]c2=O)O[C@@H]1[C@@H](O[C@H]1OC(C(=O)NCCO)=C[C@H](O)[C@@H]1O)C(N)=O`, for which the IC50 is 179 nM.

`CO[C@H]1[C@@H](O)[C@H](n2ccc(=O)[nH]c2=O)O[C@@H]1[C@@H](O[C@H]1OC(C(=O)NCCc2ccc(C)cc2)=C[C@H](O)[C@@H]1O)C(N)=O` gave an IC50 of 59 nM. This IC50 is about 3-fold lower than that of the molecule before.

For `CO[C@H]1[C@@H](O)[C@H](n2ccc(=O)[nH]c2=O)O[C@@H]1[C@@H](O[C@H]1OC(C(=O)NCCc2ccc(O)cc2)=C[C@H](O)[C@@H]1O)C(N)=O`, the IC50 is 104 nM.

Regarding `CO[C@H]1[C@@H](O)[C@H](n2ccc(=O)[nH]c2=O)O[C@@H]1[C@@H](O[C@H]1OC(C(=O)NCc2ccccc2)=C[C@H](O)[C@@H]1O)C(N)=O`, it took 219 nM to reach half-maximal inhibition (IC50).

Regarding `CCCCCCCCCCCCNC(=O)C1=C[C@H](O)[C@H](O)[C@@H](O[C@@H](C(N)=O)[C@H]2O[C@@H](n3ccc(=O)[nH]c3=O)[C@H](O)[C@@H]2OC)O1`, the IC50 is 622 nM.

As usually defined, the MIC is the lowest concentration found to suppress growth. A higher MIC goes with weaker potency. Usually IC50 stands for the point on the concentration scale where inhibition reaches its midpoint.

Source of the values: ChEMBL document CHEMBL1136174, “Synthesis and antimycobacterial activity of capuramycin analogues. Part 1: substitution of the azepan-2-one moiety of capuramycin” (Bioorg Med Chem Lett, 2003).
